Test system: mutSOD1 mice
Assay: Survival of mutSOD1 mice (mouse model of ALS)
Format: in vivo
Settings: FIG. 10B, polyP neutralizing cationic polyamine
From the text: Hemizygous transgenic mice carrying mutant human SOD1^G93A (high copy number; B6SJL; Cat. #002726), wild-type human SOD1^WT (B6SJL; Cat. #002297) and TARDBP^A315T (C57BL/6J; Cat. #010700) transgenes were obtained from Jackson Laboratories (Bar Harbor, Maine, USA). Hemizygous transgenic mice (background B6SJLF/J) carrying C9ORF72 hexanucleotide repeats (˜500) in intron were generated by Robert Brown (Peters et al., 2015). All mice were maintained and bred at the animal facility of Universidad Andres Bello. The presence of the human SOD1transgene, the human TARDBP transgene and the human C9ORF72 transgene were validated by polymerase chain reaction as previously described. Transgenic males were crossed with WT females (B6SJL or C57BL/6J) from the corresponding background; these non-transgenic littermates (NTg) were used as internal controls for all experiments. The SOD1^G93A (mutSOD1) mice, but not the hSOD1WT (wtSOD1) mice, develop signs of neuromuscular deficits (tremor of the legs and loss of extension reflex of the hind paws) starting at 3 months of age and have an average lifespan of 133-147 days. […]
In this Example, polyP neutralizing molecules including a dendrimer (e.g., G3-PAMAM-NH2) and a cationic polyamine (e.g., spermidine) were evaluated as potential therapies for neurological disorders using a mouse model of ALS. […]

NCCCCNCCCN [spermidine]
survival of mutSOD1 mice (in words): prolonged survival
